Among the data in paper PMC5814754, “Quantitative, Wide-Spectrum Kinase Profiling in Live Cells for Assessing the Effect of Cellular ATP on Target Engagement” (Cell Chemical Biology, 2018) are EC50 values, retold here.

Common to all, as to experiment: Apparent affinity (EC50) of energy transfer probes by titration onto live HEK293 cells expressing kinase/Nluc fusions (Table S1)
Common to all, as to assay type: binding

Assay [1] concerns the target full-length kinase/Nluc fusion proteins (Homo sapiens, UniProt O94768). The conditions noted are these: STK17B (NP_004217), Nluc orientation C; read-out: Probe EC50.
In assay [2] the target is full-length kinase/Nluc fusion proteins (Homo sapiens, UniProt P24941). The conditions noted are these: CDK2, Nluc C; read-out: Probe EC50.
The target in assay [3] is full-length kinase/Nluc fusion proteins (Homo sapiens, UniProt P29320). The conditions noted are these: EPHA3, Nluc C; read-out: Probe EC50.
Assay [4] addresses full-length kinase/Nluc fusion proteins (Homo sapiens, UniProt P49840). The conditions noted are these: GSK3A, Nluc N; read-out: Probe EC50.
Assay [5] has as its target full-length kinase/Nluc fusion proteins (Homo sapiens, UniProt P49841). The conditions noted are these: GSK3B, Nluc N; read-out: Probe EC50.
Assay [6] has as its target full-length kinase/Nluc fusion proteins (Homo sapiens, UniProt P50750). The conditions noted are these: CDK9, Nluc N; read-out: Probe EC50.
Assay [7] deals with full-length kinase/Nluc fusion proteins (Homo sapiens, UniProt P54762). The conditions noted are these: EPHB1, Nluc C; read-out: Probe EC50.
Assay [8] concerns the target full-length kinase/Nluc fusion proteins (Homo sapiens, UniProt Q00532). The conditions noted are these: CDKL1, Nluc N; read-out: Probe EC50.
In assay [9] the target is full-length kinase/Nluc fusion proteins (Homo sapiens, UniProt Q04771). The conditions noted are these: ACVR1, Nluc C; read-out: Probe EC50.
The target of assay [10] is full-length kinase/Nluc fusion proteins (Homo sapiens, UniProt Q13546). The conditions noted are these: RIPK1, Nluc N (probe 1).
The target of assay [11] is full-length kinase/Nluc fusion proteins (Homo sapiens, UniProt Q8IVW4). The conditions noted are these: CDKL3, Nluc N; read-out: Probe EC50.
Assay [12] concerns the target full-length kinase/Nluc fusion proteins (Homo sapiens, UniProt Q92772). The conditions noted are these: CDKL2, Nluc N; read-out: Probe EC50.
Assay [13] deals with full-length kinase/Nluc fusion proteins (Homo sapiens, UniProt Q9UPZ9). The conditions noted are these: ICK, Nluc N; read-out: Probe EC50.

Where only a bound is given, the exact number is not on record here.

Sequence of full-length kinase/Nluc fusion proteins (Homo sapiens, UniProt P49841) (P49841 whole entry, the tested form may be a part): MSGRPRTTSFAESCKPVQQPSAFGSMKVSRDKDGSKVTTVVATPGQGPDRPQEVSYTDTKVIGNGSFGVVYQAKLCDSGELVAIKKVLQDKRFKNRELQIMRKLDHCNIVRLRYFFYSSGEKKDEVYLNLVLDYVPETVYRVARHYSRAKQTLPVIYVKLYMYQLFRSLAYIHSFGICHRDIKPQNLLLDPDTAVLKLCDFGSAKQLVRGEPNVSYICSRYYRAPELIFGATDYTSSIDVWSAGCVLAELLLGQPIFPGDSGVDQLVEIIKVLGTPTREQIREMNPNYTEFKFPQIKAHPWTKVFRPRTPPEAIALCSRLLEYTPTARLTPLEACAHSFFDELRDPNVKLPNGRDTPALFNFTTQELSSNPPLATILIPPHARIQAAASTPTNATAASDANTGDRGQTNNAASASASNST
Sequence of full-length kinase/Nluc fusion proteins (Homo sapiens, UniProt Q92772) (Q92772 whole entry, the tested form may be a part): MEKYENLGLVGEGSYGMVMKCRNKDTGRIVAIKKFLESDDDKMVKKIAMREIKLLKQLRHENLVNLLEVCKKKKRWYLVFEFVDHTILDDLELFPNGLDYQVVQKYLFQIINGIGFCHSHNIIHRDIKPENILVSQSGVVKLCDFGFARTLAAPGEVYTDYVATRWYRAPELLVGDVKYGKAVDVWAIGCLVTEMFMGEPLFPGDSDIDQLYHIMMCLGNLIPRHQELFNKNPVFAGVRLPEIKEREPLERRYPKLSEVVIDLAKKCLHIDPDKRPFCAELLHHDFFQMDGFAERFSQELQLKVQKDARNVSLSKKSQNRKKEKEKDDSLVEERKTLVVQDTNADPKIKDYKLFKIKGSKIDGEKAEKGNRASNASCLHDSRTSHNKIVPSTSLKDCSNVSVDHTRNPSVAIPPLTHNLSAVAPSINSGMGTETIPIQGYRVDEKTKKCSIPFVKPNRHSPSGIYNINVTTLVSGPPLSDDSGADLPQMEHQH
Sequence of full-length kinase/Nluc fusion proteins (Homo sapiens, UniProt Q9UPZ9) (Q9UPZ9 whole entry, the tested form may be a part): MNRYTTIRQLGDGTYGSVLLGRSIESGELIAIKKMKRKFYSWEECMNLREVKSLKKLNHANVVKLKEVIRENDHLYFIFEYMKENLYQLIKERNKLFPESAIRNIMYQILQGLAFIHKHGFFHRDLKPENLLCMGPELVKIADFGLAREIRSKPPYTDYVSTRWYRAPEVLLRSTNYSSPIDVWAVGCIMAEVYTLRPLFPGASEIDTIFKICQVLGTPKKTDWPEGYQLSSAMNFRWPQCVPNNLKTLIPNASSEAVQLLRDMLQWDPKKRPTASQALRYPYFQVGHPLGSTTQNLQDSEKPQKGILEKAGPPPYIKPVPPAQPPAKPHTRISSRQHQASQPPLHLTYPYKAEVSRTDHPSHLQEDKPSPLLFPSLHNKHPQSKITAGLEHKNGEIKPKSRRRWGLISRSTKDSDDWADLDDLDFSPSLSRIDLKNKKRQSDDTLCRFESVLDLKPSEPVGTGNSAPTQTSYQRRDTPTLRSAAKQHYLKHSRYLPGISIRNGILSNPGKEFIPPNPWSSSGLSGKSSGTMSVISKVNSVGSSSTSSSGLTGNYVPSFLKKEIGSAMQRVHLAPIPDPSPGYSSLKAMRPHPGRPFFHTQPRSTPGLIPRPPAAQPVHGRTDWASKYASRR
Sequence of full-length kinase/Nluc fusion proteins (Homo sapiens, UniProt Q04771) (Q04771 21-509): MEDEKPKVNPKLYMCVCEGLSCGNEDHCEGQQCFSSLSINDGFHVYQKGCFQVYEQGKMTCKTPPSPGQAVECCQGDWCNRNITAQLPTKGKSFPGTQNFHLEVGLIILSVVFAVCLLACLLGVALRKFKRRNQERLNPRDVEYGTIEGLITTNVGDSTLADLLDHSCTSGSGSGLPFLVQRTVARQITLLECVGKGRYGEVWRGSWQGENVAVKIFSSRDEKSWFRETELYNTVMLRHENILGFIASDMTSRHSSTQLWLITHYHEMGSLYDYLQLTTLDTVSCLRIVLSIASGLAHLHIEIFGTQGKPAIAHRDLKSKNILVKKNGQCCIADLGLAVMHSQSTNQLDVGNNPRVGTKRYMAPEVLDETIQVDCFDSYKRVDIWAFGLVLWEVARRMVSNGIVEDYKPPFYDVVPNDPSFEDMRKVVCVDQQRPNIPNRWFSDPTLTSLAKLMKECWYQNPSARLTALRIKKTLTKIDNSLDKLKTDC
Sequence of full-length kinase/Nluc fusion proteins (Homo sapiens, UniProt P29320) (P29320 21-983): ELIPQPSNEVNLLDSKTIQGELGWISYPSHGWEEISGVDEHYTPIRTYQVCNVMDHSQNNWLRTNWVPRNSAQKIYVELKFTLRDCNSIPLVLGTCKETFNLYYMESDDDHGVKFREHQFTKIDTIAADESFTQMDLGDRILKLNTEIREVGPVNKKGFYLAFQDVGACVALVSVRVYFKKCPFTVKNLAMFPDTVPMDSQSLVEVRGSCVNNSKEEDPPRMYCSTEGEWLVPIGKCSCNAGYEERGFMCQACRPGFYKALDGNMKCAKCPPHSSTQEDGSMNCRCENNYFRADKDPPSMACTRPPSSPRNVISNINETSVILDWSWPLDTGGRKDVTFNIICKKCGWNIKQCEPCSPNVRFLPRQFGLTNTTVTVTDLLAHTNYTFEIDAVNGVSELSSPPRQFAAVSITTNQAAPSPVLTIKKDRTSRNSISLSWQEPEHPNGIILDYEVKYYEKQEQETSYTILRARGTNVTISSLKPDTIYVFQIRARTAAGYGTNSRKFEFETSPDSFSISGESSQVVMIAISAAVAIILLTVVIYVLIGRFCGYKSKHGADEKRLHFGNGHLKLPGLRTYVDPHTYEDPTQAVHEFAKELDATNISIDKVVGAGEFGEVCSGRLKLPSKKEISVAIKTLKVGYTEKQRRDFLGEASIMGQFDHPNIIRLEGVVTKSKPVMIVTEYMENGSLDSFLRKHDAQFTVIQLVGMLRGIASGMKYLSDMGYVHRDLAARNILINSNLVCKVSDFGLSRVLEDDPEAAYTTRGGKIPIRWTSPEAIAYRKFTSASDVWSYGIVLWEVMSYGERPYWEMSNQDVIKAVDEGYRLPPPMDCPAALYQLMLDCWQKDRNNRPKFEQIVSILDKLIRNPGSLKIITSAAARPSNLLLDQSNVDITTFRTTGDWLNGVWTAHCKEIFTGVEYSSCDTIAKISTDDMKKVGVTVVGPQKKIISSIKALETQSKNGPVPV
Sequence of full-length kinase/Nluc fusion proteins (Homo sapiens, UniProt O94768) (O94768 whole entry, the tested form may be a part): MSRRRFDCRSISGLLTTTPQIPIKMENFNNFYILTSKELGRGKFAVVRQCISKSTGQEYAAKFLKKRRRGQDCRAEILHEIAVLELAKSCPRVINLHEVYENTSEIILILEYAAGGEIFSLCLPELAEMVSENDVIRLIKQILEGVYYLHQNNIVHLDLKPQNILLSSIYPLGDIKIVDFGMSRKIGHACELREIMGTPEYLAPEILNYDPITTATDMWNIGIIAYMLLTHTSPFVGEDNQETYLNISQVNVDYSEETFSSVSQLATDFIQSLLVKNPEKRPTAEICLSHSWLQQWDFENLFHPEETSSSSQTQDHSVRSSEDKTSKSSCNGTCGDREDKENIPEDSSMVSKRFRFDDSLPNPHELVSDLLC
Sequence of full-length kinase/Nluc fusion proteins (Homo sapiens, UniProt Q00532) (Q00532 whole entry, the tested form may be a part): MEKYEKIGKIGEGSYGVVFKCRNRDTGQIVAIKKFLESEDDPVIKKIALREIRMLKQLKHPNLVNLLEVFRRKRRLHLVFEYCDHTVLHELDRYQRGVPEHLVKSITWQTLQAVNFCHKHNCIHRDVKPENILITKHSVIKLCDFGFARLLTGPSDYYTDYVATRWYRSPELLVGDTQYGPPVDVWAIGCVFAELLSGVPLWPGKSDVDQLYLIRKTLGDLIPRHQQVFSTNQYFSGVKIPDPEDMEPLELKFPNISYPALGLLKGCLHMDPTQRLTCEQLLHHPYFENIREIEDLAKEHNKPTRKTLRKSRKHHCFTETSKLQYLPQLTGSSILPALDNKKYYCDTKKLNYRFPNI
Sequence of full-length kinase/Nluc fusion proteins (Homo sapiens, UniProt P49840) (P49840 whole entry, the tested form may be a part): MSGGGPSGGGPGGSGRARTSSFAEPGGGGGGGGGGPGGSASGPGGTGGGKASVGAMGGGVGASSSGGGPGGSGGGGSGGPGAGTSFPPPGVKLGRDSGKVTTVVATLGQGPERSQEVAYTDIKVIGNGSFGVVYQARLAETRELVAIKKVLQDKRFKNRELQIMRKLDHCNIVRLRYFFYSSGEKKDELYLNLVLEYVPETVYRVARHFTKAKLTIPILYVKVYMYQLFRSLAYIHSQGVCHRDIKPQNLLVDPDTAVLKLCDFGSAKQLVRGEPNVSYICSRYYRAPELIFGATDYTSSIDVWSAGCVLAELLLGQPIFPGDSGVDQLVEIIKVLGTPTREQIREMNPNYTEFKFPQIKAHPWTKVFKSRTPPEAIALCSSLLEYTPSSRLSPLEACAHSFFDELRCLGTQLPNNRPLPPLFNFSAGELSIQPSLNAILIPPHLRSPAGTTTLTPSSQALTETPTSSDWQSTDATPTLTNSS
Sequence of full-length kinase/Nluc fusion proteins (Homo sapiens, UniProt Q13546) (Q13546 whole entry, the tested form may be a part): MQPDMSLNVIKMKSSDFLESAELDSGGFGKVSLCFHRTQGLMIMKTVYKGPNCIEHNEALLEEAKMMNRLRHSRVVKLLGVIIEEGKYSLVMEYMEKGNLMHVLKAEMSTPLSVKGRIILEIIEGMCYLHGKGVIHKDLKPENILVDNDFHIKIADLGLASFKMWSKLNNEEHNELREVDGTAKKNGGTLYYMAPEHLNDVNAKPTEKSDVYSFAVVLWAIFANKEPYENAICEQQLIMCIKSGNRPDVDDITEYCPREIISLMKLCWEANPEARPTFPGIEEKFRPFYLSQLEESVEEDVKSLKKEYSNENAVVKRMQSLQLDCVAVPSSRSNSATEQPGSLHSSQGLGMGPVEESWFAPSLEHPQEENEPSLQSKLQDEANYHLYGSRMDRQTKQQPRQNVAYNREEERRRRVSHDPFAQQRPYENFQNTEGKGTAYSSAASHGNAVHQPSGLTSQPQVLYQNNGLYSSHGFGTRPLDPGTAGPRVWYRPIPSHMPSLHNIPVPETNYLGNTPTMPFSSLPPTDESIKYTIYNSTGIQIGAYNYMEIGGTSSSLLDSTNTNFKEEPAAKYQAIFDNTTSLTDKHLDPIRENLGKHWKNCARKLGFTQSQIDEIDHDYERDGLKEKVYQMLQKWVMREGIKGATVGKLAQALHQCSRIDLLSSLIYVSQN

As a reminder, the EC50 is the concentration giving half of the maximal effect. In the case of `N#CCc1ccc(Nc2nc(NCCCCNC(=O)CCc3ccc4n3[B-](F)(F)[N+]3=C(c5ccc[nH]5)C=CC3=C4)cc(Nc3cc(C4CC4)[nH]n3)n2)cc1` [Energy Transfer Probe 1, 2-(4-((4-((4-aminobutyl)amino)-6-((5-cyclopropyl-1H-pyrazol-3-yl)amino)pyrimidin-2-yl)amino)phenyl)acetonitrile-NanoBRET 590], the EC50 came out at 0.3 µM in assay [1]; 0.3 µM in [2]; 0.2 µM in assay [3]; 0.1 µM in assay [4]; 0.2 µM in assay [5]; 0.2 µM in assay [6]. In addition, the EC50 in assay [7] was 0.2 µM; in assay [8], 0.2 µM; in [9] it was 0.3 µM; in [10], more than 1 µM; in assay [11], 0.1 µM; in [12], more than 1 µM. In addition, in [13], the EC50 was 0.3 µM.
